From paper PMC11597202, “Novel Thiazole-Fused [4,5-g] or [5,4-g]Quinazolin-8-ones and Their Quinazoline Analogues: Synthesis and Biological Evaluation” (Pharmaceuticals, 2024)

Experiments:
[1] = In vitro cytotoxic assay, Huh7-D12; format: cell-based; settings: human, Huh7-D12 cells (liver cancer cell line)
Description: (§1) Skin normal fibroblastic cells were purchased from Lonza (Basel, Switzerland). […] All culture media were supplemented by 10% of FBS, 1% of penicillin–streptomycin and 2 mM glutamine.
(§2) Chemicals were solubilized in DMSO at a concentration of 10 mM (stock solution) and diluted in culture medium to the desired final concentrations. […] Cells were plated in 96-well plates (4000 cells/well). Twenty-four hours after seeding, the cells were exposed to chemicals. […] Image acquisition and analysis were performed using a Cellomics ArrayScan VTI/HCS Reader (ThermoScientific, Les Ulis, France). The survival percentages were calculated as the percentage of cell number after compound treatment over cell number after DMSO treatment. The relative IC50 values were calculated using the curve fitting XLfit 5.5.0.5 (idbs) integrated in Microsoft Excel as an add-on.
(§3) 4.3.1. Cell culture. Skin normal fibroblastic cells are purchased from Lonza (Basel, Switzerland). Huh7- […]
(§4) from ATCC (American Type Culture Collection). […]
(§5) supplemented by 10% of FBS, 1% of penicillin-streptomycin and 2 mM glutamine.
(§6) 4.3.2. Cytotoxic assay. Chemicals were solubilized in DMSO at a concentration of 10 mM (stock solution) and diluted in culture medium to the desired final concentrations. The dose effect cytotoxic assays (IC50 determination) were performed by increasing the concentrations of each chemical (final well […]
(§7) Cells were plated in 96-well plates
(§8) (4000 cells/well). Twenty-four hours after seeding, cells were exposed to chemicals. After 48h of treatment, cells were washed in PBS and fixed in cooled 90% ethanol/5% acetic acid for 20 min and the […]
(§9) Image acquisition and analysis were performed using a Cellomics ArrayScan VTI/HCS Reader (ThermoScientific). The survival percentages were calculated as the percentage of cell number after compound treatment over cell number after DMSO treatment. The relative IC50 were calculated using the curve fitting XLfit 5.5.0.5 (idbs) integrated in Microsoft Excel as an add-on. The 4 Parameter Logistic Model or Sigmoidal Dose-Response Model describing the sigmoid-shaped response pattern was used (fit = (A+[(B-A)/(1+[(C/x)^D])]) where fit is the response and X is the tested concentration of the compound. The lower asymptote is A (also referred to as the bottom of the curve or lower plateau or the min) and the upper asymptote is B (also referred to as the top of the curve or upper plateau or the max). The slope of the linear part of the curve is described by the factor D. The parameter C is the concentration corresponding to the response midway between A and B. C is called “relative IC50” because it refers to the maximum response obtained by a […]
(§10) The results are represented as the mean ± standard error (SE) calculated from at least three independent experiments.

[2] = In vitro cytotoxic assay, Caco-2; format: cell-based; settings: human, Caco-2 cells (colon cancer cell line); also: 0.1-25 µM tested
Description: as §1, §2, §3, §4, §5, §6, §7, §8, §9, §10

[3] = In vitro cytotoxic assay, HCT-116; format: cell-based; settings: human, HCT-116 cells (colon cancer cell line)
Description: as §1, §2, §3, §4, §5, §6, §7, §8, §9, §10

[4] = In vitro cytotoxic assay, MCF-7; format: cell-based; settings: human, MCF-7 cells (breast cancer cell line); also: 0.1-25 µM tested
Description: as §1, §2, §3, §4, §5, §6, §7, §8, §9, §10

[5] = In vitro cytotoxic assay, MDA-MB-231; format: cell-based; settings: human, MDA-MB-231 cells (breast cancer cell line); read-out: In vitro cytotoxic activity IC50, MBA-MB-231; also: 0.1-25 µM tested
Description: as §1, §2, §3, §4, §5, §6, §7, §8, §9, §10

[6] = In vitro cytotoxic assay, MDA-MB-468; format: cell-based; settings: human, MDA-MB-468 cells (breast cancer cell line); read-out: In vitro cytotoxic activity IC50, MBA-MB4-68
Description: as §1, §2, §3, §4, §5, §6, §7, §8, §9, §10

[7] = In vitro cytotoxic assay, PC-3; format: cell-based; settings: human, PC-3 cells (prostate cancer cell line); also: 0.1-25 µM tested
Description: as §1, §2, §3, §4, §5, §6, §7, §8, §9, §10

seven tumor cell lines = experiment: In vitro cytotoxic assay, whole panel of cancer cell lines; format: cell-based, human; settings: Homo sapiens; lowest to highest IC50 among the seven cancer cell lines, 48 h; read-out: IC50 span over the cancer cell lines
Description: as §1, §2, §3, §4, §5, §6, §7, §8, §9, §10

Row | Structure (SMILES) | IC50 at 48 h [1] | IC50 at 48 h [2] | IC50 at 48 h [3] | IC50 at 48 h [4] | IC50 at 48 h [5] | IC50 at 48 h [6] | IC50 at 48 h [7] | IC50 (seven tumor cell lines) | melting point
1 | N#Cc1nc2cc3c(=O)n(Cc4ccccc4)cnc3cc2s1 [Compound 5a, 7-Benzyl-8-oxo-7,8-dihydrothiazolo[4,5-g]quinazoline-2-carbonitrile] | > 25 µM | 10 µM | 7 µM | 8 µM | > 25 µM | 11 µM | 9 µM | 7 to 62 µM | 237 to 238 °C
2 | N#Cc1nc2cc3ncn(Cc4ccccc4)c(=O)c3cc2s1 [Compound 5b, 7-Benzyl-8-oxo-7,8-dihydrothiazolo[5,4-g]quinazoline-2-carbonitrile] | 3 µM | 1 µM | 2 µM | 2 µM | 3 µM | 1 µM | 2 µM | 1 to 3 µM | 217 to 218 °C
3 | N#Cc1nc2c(ccc3c(=O)n(Cc4ccccc4)cnc32)s1 [Compound 5c, 7-Benzyl-6-oxo-6,7-dihydrothiazolo[5,4-h]quinazoline-2-carbonitrile] | 17 µM | 11 µM | 4 µM | 16 µM | 24 µM | 10 µM | 12 µM | 4 to 24 µM | 273 to 274 °C
4 | N#Cc1nc2ccc3c(=O)n(Cc4ccccc4)cnc3c2s1 [Compound 5d, 7-Benzyl-6-oxo-6,7-dihydrothiazolo[4,5-h]quinazoline-2-carbonitrile] | 18 µM | 9 µM | 7 µM | 12 µM | 14 µM | 11 µM | 11 µM | 7 to 18 µM | –
5 | COc1ccc(Nc2ncnc3cc4sc(C#N)nc4cc23)c(F)c1 [Compound 14a, 8-[(2-Fluoro-4-methoxyphenyl)amino]thiazolo[4,5-g]quinazoline-2-carbonitrile] | – | – | – | – | – | – | – | – | 259 to 260 °C
6 | COc1ccc(Nc2ncnc3cc4nc(C#N)sc4cc23)c(F)c1 [Compound 14b, 8-[(2-Fluoro-4-methoxyphenyl)amino]thiazolo[5,4-g]quinazoline-2-carbonitrile] | – | – | – | – | – | – | – | – | 255 to 256 °C
7 | COc1cccc2c1C(=O)c1c(O)c3c(c(O)c1C2=O)C[C@@](O)(C(=O)CO)C[C@@H]3O[C@H]1C[C@H](N)[C@H](O)[C@H](C)O1 [Doxo, Doxorubicin, reference compound] | 0.03 µM | 0.03 µM | 0.05 µM | 0.05 µM | 0.02 µM | 0.04 µM | 0.08 µM | – | –
8 | CC(=O)O[C@H]1C(=O)[C@@]2(C)[C@H]([C@H](OC(=O)c3ccccc3)[C@]3(O)C[C@H](OC(=O)[C@H](O)[C@@H](NC(=O)c4ccccc4)c4ccccc4)C(C)=C1C3(C)C)[C@]1(OC(C)=O)CO[C@@H]1C[C@@H]2O [Taxol, reference compound] | 0.016 µM | 0.02 µM | 0.003 µM | 0.006 µM | 0.01 µM | 0.003 µM | 0.004 µM | – | –
